# Source: patent publication US20100292287A1, “Periodontitis treatment” (priority 2009, published 2010)
# How the values were obtained:
# [1] = test system: diabetic Sprague Dawley rats injected with lipopolysaccharide from Porphyromonas gingivalis; test: LPS-induced periodontitis (alveolar bone loss, root/enamel ratio) in streptozotocin diabetic rats fed ARI diets; format: in vivo, rat; conditions: for ratio of exposed root to enamel area, LPS side: LPS injected (right) side; for ratio of exposed root to enamel area, LPS side / ratio of exposed root to enamel area, PBS side: mean±S.E.M.; for ratio of exposed root to enamel area, PBS side: PBS injected (left, internal control) side
# Method: A group of 80 approximately 81-100 g male Sprague Dawley rats were utilized for this study. Diabetes was induced in 40 of these rats by tail vein injection of 75 mg/kg of streptozotocin. After 3 days, blood glucose (BG) levels in blood obtained from tail vein lacerations were analyzed with a commercial glucometer (Freestyle by TheraSense, Alameda, Calif.). Each rat with BG levels <300 mg/dL were reinjected with streptozotocin. Again, BGs were measured after 3 days, and the procedure was repeated a third time for remaining rats with BGs <300 mg/dL.
# (§1) All rats with blood glucose levels >300 mg/dL were then equally divided into 4 groups. The first diabetic group of 8 rats received standard rat diet (BioServe), the second received similar rat diet containing 0.015% of tolrestat, the third group received similar diet containing 0.0125% imirestat, and the fourth group received similar diet containing 0.08% quercetin. Experimental diets were initiated 10 days following initial streptozotocin injections and continued for 10 weeks until the studies were terminated. Non-diabetic age-matched rats were also added as additional non-diabetic controls. These consisted of 4 groups of 8 rats each as follows: an untreated non-diabetic group received standard rat diet, the second control group received similar rat diet containing 0.015% of tolrestat, the third control group received similar diet containing 0.0125% imirestat, and the fourth control group received similar diet containing 0.08% quercetin.
# A maximum of 3 rats were housed per cage. Weekly consumption of diet/cage and body weights of each cage occupant was measured throughout the study. Drugs diets were prepared by adding the appropriate weight of drug to 3 kg portions of standard rat chow as follows. The weighed drug dissolved in 400 mL of ethanol was uniformly sprayed onto a monolayer of the rat chow. After the upper layer of chow was uniformly wetted, the chow was mixed and again formed into a monolayer, and the procedure was repeated until the entire drug solution was utilized. Following overnight oven drying to ensure that all solvent was removed, weighed amounts of diet were administered to each appropriate group of animals.
# (§2) Forty-four days after initiation of diets, each rat was anesthetized with 4% isoflurane vapor in an induction chamber. Each rat was then placed on its back and the palatal gingiva between the first and second maxillary molars on the right side was injected with 10 μL of a phosphate-buffered saline (PBS) solution containing 1 mg/mL lipopolysaccharide LPS from Porphyromonas gingivalis (InvivoGen, San Diego, Calif.) using an insulin syringe equipped with a blunted edge 30-gauge needle to induce the formation of periodontitis. As a control, 10 μL of PBS was similarly injected into the left side of the jaw. This injection was followed by two additional injections at 48-hour intervals. Twenty-four days after the final injection, all rats were euthanized with carbon dioxide gas. The heads were decapitated with a guillotine and frozen for subsequent defleshing. Blood from each rat was obtained by heart puncture and HbA1c levels were measured using the Metrika A1cNOW Plus System Test Strips (Fisher Healthcare).
# Each thawed head was manually defleshed using standard dental instruments by Dr. James O'Meara, Assoc. Professor of General Dentistry at Creighton University of Omaha, Nebr. The maxillary area was separated from the remaining skull using bone cutters, and each defleshed left and right maxillary alveolus with molars were stored in PBS buffer. Finally, all cleaned maxillary alveoli were placed in 3% aqueous peroxide solution overnight and air dried. They were then stained in 5% aqueous toluidine blue to identify the cemento-enamel junction (CEJ) on the molars. After air drying, each stained preparation was examined under a dissecting microscope and cleaned of any remaining flesh particles using the tip of a 20-gauge needle. […]
# [2] = test system: non-diabetic Sprague Dawley rats injected with lipopolysaccharide from Porphyromonas gingivalis; test: LPS-induced periodontitis (alveolar bone loss, root/enamel ratio) in non-diabetic rats fed ARI diets; format: in vivo, rat; conditions: for ratio of exposed root to enamel area, LPS side / ratio of exposed root to enamel area, PBS side: non-diabetic rats; for ratio of exposed root to enamel area, LPS side: first value of 'LPS and PBS sides ... respective ratios'; for ratio of exposed root to enamel area, PBS side: second value of 'LPS and PBS sides ... respective ratios'; for difference in the ratios between the LPS and PBS sides: normal (non-diabetic) rats, FIG. 7
# Method: as §1, §2
# Each thawed head was manually defleshed using standard dental instruments by Dr. James O'Meara, Assoc. Professor of General Dentistry at Creighton University of Omaha, Nebr. The maxillary area was separated from the remaining skull using bone cutters, and each defleshed left and right maxillary alveolus with molars were stored in PBS buffer. Finally, all cleaned maxillary alveoli were placed in 3% aqueous peroxide solution overnight and air dried. They were then stained in 5% aqueous toluidine blue to identify the cemento-enamel junction (CEJ) on the molars. After air drying, each stained preparation was examined under a dissecting microscope and cleaned of any remaining flesh particles using the tip of a 20-gauge needle. Each palatal preparation was then placed onto a 20 mm petri dish containing ultrafine chromatography grade silica and a mm ruler. The maxilla-molar area palatal sides were then photographed using a PAXcam2+ USB2 Digital Microscope Camera attached to a Zeiss dissection microscope at 40' magnification. 2.0 MP images were captured with 1616×1216 image resolution. The images were analyzed using Pax-it software (Paxcam, Chicago, Ill.). Care was taken to obtain images with consistent camera angles.
# In each image the two molars between which the injections were made were analyzed. The exposed side of each molar was manually outlined along with the area encompassed by the cemento-enamel junction (CEJ) and exposed root area. To facilitate differentiation of the exposed root area and the CEJ, each photograph was photo-enhanced as required using sharpening or desaturating techniques. Multiple tracings were obtained and averaged for each image. Moreover, since tooth movement can also increase variability, multiple images of the same sample were also analyzed, if necessary. The area measurements from both molars were combined, and from these combined area measurements, a ratio of exposed root area (root to the CEJ) versus enamel area was obtained. […]
# [3] = commercial version (Alredase), withdrawn 1996 or 1997; cited from earlier work
# TNF-α = target: T1, TNF-α (Mus musculus, UniProt P06804); conditions: diabetic mice inoculated with Porphyromonas gingivalis; cited from earlier work
# T1 construct: host or cells: diabetic mice (in vivo, endogenous TNF-α)
# T1 sequence (P06804 80-235 limits assumed): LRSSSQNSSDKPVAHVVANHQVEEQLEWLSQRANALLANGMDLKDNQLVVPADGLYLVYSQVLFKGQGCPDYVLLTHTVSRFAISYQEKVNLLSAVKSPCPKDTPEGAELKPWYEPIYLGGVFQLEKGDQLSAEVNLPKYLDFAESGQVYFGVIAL
# diabetic mice = conditions: cited from earlier work
# crevicular PMNs = conditions: rats with chemically induced diabetes; cited from earlier work
Molecule,"ratio of exposed root to enamel area, LPS side [1]","ratio of exposed root to enamel area, PBS side [1]","ratio of exposed root to enamel area, LPS side [2]","ratio of exposed root to enamel area, PBS side [2]",difference in the ratios between the LPS and PBS sides [2],other results
O=C1NC(=O)C2(N1)c1cc(F)ccc1-c1ccc(F)cc12 [imirestat],0.439±0.043,0.421±0.029,0.412±0.016,0.439±0.0132,no significant difference,alveolar bone loss ([1]; result in words): effective in reducing alveolar bone loss
O=c1c(O)c(-c2ccc(O)c(O)c2)oc2cc(O)cc(O)c12 [quercetin],0.448±0.057,0.440±0.023,0.406±0.018,0.417±0.042,no significant difference,
COc1ccc2c(C(=S)N(C)CC(=O)O)cccc2c1C(F)(F)F [tolrestat],,0.435±0.010,0.435±0.039,0.422±0.036,no significant difference,reported adverse events leading to market withdrawal [3]: fatalities from hepatic necrosis
Enbrel,,,,,,prolonged cytokine expression (TNF-α): reversal of the prolonged cytokine expression
N-benzyloxycarbonyl-Val-Ala-Asp-fluoromethyl-ketone [z-VAD-fmk],,,,,,"healing parameters (fibroblast density, collagen I and III mRNA, matrix formation, bone-lining cells, new bone formation) (diabetic mice): significant improvements in several healing parameters"
insulin: insulin administration to diabetic rats,,,,,,chemotactic response of crevicular PMNs to casein (crevicular PMNs): reverses this decrease
